Key:
human Nav1.8 = human Nav1.8 (Homo sapiens (Human), UniProt Q9Y5Y9); assay: E-VIPR optical membrane potential assay with electrical stimulation; format: cell-based; conditions: HEK cells expressing human Nav1.8
Procedure, shortened: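 HEK cells expressing human Nav1.8 were loaded with CC2-DMPE (8 μM) and DiSBAC6(3) (2.5 μM), then given compound for 20-35 min at room temperature (0.625% DMSO). Cells received a 10-s current-controlled electrical stimulus. Response was the stimulated/baseline 460/580 nm emission ratio (Rf/Ri), with tetracaine (125 μM) as positive control.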

[1] = Human liver microsome assay; format: in vitro ADME; conditions: 1 uM substrate, 0.5 mg/mL liver microsome, 2 mM NADPH, 37° C., referenced against time zero control
Procedure, shortened: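 Pooled human liver microsomes (0.5 mg/mL) with 1 uM substrate (0.2% DMSO), 2 mM NADPH, 0.1 M phosphate, shaken 30 min at 37° C. Quenched with cold acetonitrile; parent quantified by LC/MS/MS. Value is % substrate remaining at 30 min versus a time-zero control without NADPH.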

Chain of human Nav1.8 (Q9Y5Y9 whole entry): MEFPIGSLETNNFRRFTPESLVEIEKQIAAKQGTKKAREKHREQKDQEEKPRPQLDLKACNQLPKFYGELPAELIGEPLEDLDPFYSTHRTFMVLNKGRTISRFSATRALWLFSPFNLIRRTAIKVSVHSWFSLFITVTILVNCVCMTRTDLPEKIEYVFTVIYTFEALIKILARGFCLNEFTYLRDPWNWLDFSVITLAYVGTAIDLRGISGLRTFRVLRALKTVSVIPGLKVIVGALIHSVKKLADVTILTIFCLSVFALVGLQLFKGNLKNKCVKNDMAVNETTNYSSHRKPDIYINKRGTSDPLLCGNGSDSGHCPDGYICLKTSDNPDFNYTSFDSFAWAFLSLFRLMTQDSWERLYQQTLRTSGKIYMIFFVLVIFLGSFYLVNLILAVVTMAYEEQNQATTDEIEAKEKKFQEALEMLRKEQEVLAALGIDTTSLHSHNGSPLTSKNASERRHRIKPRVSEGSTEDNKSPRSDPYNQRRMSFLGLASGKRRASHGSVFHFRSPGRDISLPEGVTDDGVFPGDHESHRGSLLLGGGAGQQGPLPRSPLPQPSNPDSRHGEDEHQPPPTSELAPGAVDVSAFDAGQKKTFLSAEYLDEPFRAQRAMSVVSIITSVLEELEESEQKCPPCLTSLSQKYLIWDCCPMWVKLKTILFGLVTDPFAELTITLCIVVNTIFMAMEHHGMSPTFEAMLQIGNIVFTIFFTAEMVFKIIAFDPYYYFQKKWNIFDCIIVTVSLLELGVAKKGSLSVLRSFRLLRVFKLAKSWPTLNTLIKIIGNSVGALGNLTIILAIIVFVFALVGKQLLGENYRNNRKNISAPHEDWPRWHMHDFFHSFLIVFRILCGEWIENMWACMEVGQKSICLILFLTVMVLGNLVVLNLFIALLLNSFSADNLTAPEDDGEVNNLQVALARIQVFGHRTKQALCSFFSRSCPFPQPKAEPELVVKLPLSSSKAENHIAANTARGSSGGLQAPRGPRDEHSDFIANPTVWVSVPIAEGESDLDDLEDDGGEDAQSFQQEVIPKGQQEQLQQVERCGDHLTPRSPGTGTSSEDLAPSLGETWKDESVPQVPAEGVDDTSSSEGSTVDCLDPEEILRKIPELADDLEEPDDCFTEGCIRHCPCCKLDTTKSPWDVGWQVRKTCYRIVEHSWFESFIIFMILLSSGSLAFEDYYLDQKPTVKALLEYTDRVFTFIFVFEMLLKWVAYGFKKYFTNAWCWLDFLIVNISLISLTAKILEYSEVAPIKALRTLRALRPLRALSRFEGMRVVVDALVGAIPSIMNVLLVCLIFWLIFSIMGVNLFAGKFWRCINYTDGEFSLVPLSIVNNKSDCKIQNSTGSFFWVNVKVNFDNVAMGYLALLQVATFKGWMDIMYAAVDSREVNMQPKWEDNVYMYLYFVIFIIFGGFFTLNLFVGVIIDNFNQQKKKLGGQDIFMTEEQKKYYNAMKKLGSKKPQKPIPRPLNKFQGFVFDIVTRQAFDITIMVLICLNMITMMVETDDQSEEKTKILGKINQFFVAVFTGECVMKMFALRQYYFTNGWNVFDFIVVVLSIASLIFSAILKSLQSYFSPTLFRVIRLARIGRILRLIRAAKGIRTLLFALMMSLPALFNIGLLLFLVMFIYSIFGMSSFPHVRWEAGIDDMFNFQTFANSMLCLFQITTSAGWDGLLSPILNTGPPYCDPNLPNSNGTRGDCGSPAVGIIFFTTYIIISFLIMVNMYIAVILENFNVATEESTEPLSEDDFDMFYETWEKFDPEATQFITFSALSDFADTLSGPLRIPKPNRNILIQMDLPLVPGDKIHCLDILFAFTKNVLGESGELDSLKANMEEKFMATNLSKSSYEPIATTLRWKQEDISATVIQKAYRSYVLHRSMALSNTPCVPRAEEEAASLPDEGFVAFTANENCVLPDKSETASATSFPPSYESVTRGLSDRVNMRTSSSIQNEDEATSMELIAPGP

IC50 (human Nav1.8) [nM]	HLM: percent unchanged after 30 min [1] [%]	SMILES
13	82	COc1ccc(Oc2cc(Cl)ccc2C(=O)Nc2cccc(S(N)(=O)=O)c2)c(OC)c1 [Compound 84, 4-chloro-2-(2,4-dimethoxyphenoxy)-N-(3-sulfamoylphenyl)benzamide]
15	82	COc1ccc(Oc2cc(Cl)ccc2C(=O)Nc2cccc(S(N)(=O)=O)c2)c(Cl)c1 [Compound 86, 4-chloro-2-(2-chloro-4-methoxyphenoxy)-N-(3-sulfamoylphenyl)benzamide]
7	105	NS(=O)(=O)c1cccc(NC(=O)c2c(Oc3ccc(F)cc3)cc(C(F)(F)F)cc2C(F)(F)F)c1 [Compound 88, 2-(4-fluorophenoxy)-N-(3-sulfamoylphenyl)-4,6-bis(trifluoromethyl)benzamide]
1	87	COc1cc(F)ccc1Oc1cc(C(F)(F)F)cc(C(F)(F)F)c1C(=O)Nc1cccc(S(N)(=O)=O)c1 [Compound 89, 2-(4-fluoro-2-methoxyphenoxy)-N-(3-sulfamoylphenyl)-4,6-bis(trifluoromethyl)benzamide]
7	92	COc1ccc(Oc2cc(C(F)(F)F)cc(C(F)(F)F)c2C(=O)Nc2cccc(S(N)(=O)=O)c2)cc1F [Compound 90, 2-(3-fluoro-4-methoxyphenoxy)-N-(3-sulfamoylphenyl)-4,6-bis(trifluoromethyl)benzamide]
7	69	COc1ccc(Oc2cc(C(F)(F)F)cc(C(F)(F)F)c2C(=O)Nc2cccc(S(N)(=O)=O)c2)c(F)c1 [Compound 91, 2-(2-fluoro-4-methoxyphenoxy)-N-(3-sulfamoylphenyl)-4,6-bis(trifluoromethyl)benzamide]
16	113	COc1ccc(F)cc1Oc1cc(C(F)(F)F)cc(C(F)(F)F)c1C(=O)Nc1cccc(S(N)(=O)=O)c1 [Compound 92, 2-(5-fluoro-2-methoxyphenoxy)-N-(3-sulfamoylphenyl)-4,6-bis(trifluoromethyl)benzamide]
2	96	Cc1cc(F)ccc1Oc1cc(C(F)(F)F)cc(C(F)(F)F)c1C(=O)Nc1cccc(S(N)(=O)=O)c1 [Compound 93, 2-(4-fluoro-2-methylphenoxy)-N-(3-sulfamoylphenyl)-4,6-bis(trifluoromethyl)benzamide]
5	97	NS(=O)(=O)c1cccc(NC(=O)c2c(Cl)cc(Cl)cc2Oc2ccc(F)cc2)c1 [Compound 94, 2,4-dichloro-6-(4-fluorophenoxy)-N-(3-sulfamoylphenyl)benzamide]
0.9	91	COc1cc(F)ccc1Oc1cc(Cl)cc(Cl)c1C(=O)Nc1cccc(S(N)(=O)=O)c1 [Compound 95, 2,4-dichloro-6-(4-fluoro-2-methoxyphenoxy)-N-(3-sulfamoylphenyl)benzamide]
1	96	Cc1cc(F)ccc1Oc1cc(Cl)cc(Cl)c1C(=O)Nc1cccc(S(N)(=O)=O)c1 [Compound 96, 2,4-dichloro-6-(4-fluoro-2-methylphenoxy)-N-(3-sulfamoylphenyl)benzamide]
4	102	NS(=O)(=O)c1cccc(NC(=O)c2c(Cl)cc(Cl)cc2Oc2ccc(OC(F)(F)F)cc2)c1 [Compound 97, 2,4-dichloro-N-(3-sulfamoylphenyl)-6-(4-(trifluoromethoxy)phenoxy)benzamide]
0.8	62	COc1cc(Cl)ccc1Oc1cc(Cl)cc(Cl)c1C(=O)Nc1cccc(S(N)(=O)=O)c1 [Compound 98, 2,4-dichloro-6-(4-chloro-2-methoxyphenoxy)-N-(3-sulfamoylphenyl)benzamide]
5	63	COc1ccc(Oc2cc(Cl)cc(Cl)c2C(=O)Nc2cccc(S(N)(=O)=O)c2)c(F)c1 [Compound 99, 2,4-dichloro-6-(2-fluoro-4-methoxyphenoxy)-N-(3-sulfamoylphenyl)benzamide]

Continued, compound first:

SMILES	IC50 (human Nav1.8) [nM]	HLM: percent unchanged after 30 min [1] [%]
COc1c(Cl)cccc1Oc1cc(C(F)(F)F)ccc1C(=O)Nc1cccc(S(N)(=O)=O)c1 [Compound 68, 2-(3-chloro-2-methoxyphenoxy)-N-(3-sulfamoylphenyl)-4-(trifluoromethyl)benzamide]	9	80
NS(=O)(=O)c1cccc(NC(=O)c2ccc(C(F)(F)C(F)(F)F)cc2Oc2ccc(F)cc2)c1 [Compound 69, 2-(4-fluorophenoxy)-4-(perfluoroethyl)-N-(3-sulfamoylphenyl)benzamide]	26	110
COc1cc(F)ccc1Oc1cc(C(F)(F)C(F)(F)F)ccc1C(=O)Nc1cccc(S(N)(=O)=O)c1 [Compound 70, 2-(4-fluoro-2-methoxyphenoxy)-4-(perfluoroethyl)-N-(3-sulfamoylphenyl)benzamide]	13	87
COc1cc(Cl)ccc1Oc1cc(C(F)(F)C(F)(F)F)ccc1C(=O)Nc1cccc(S(N)(=O)=O)c1 [Compound 71, 2-(4-chloro-2-methoxyphenoxy)-4-(perfluoroethyl)-N-(3-sulfamoylphenyl)benzamide]	28	81
COc1ccc(Oc2cc(C(F)(F)C(F)(F)F)ccc2C(=O)Nc2cccc(S(N)(=O)=O)c2)c(Cl)c1 [Compound 72, 2-(2-chloro-4-methoxyphenoxy)-4-(perfluoroethyl)-N-(3-sulfamoylphenyl)benzamide]	20	67
NS(=O)(=O)c1cccc(NC(=O)c2ccc(C(F)(F)F)cc2Oc2ccccc2Cl)c1 [Compound 73, 2-(2-chlorophenoxy)-N-(3-sulfamoylphenyl)-4-(trifluoromethyl)benzamide]	26	95
NS(=O)(=O)c1cccc(NC(=O)c2c(Oc3ccccc3Cl)cccc2C(F)(F)F)c1 [Compound 74, 2-(2-chlorophenoxy)-N-(3-sulfamoylphenyl)-6-(trifluoromethyl)benzamide]	15	102
COc1ccc(Oc2cccc(C(F)(F)F)c2C(=O)Nc2cccc(S(N)(=O)=O)c2)c(Cl)c1 [Compound 75, 2-(2-chloro-4-methoxyphenoxy)-N-(3-sulfamoylphenyl)-6-(trifluoromethyl)benzamide]	5	62
COc1cc(F)ccc1Oc1cc(Cl)c(Cl)cc1C(=O)Nc1cccc(S(N)(=O)=O)c1 [Compound 77, 4,5-dichloro-2-(4-fluoro-2-methoxyphenoxy)-N-(3-sulfamoylphenyl)benzamide]	1	95
NS(=O)(=O)c1cccc(NC(=O)c2cc(Cl)c(Cl)cc2Oc2ccc(F)cc2)c1 [Compound 78, 4,5-dichloro-2-(4-fluorophenoxy)-N-(3-sulfamoylphenyl)benzamide]	8	104
COc1ccc(Oc2cc(Cl)c(Cl)cc2C(=O)Nc2cccc(S(N)(=O)=O)c2)cc1F [Compound 79, 4,5-dichloro-2-(3-fluoro-4-methoxyphenoxy)-N-(3-sulfamoylphenyl)benzamide]	4	91
COc1cc(Cl)ccc1Oc1cc(Cl)c(Cl)cc1C(=O)Nc1cccc(S(N)(=O)=O)c1 [Compound 80, 4,5-dichloro-2-(4-chloro-2-methoxyphenoxy)-N-(3-sulfamoylphenyl)benzamide]	4	108
COc1ccc(Oc2cc(Cl)c(Cl)cc2C(=O)Nc2cccc(S(N)(=O)=O)c2)c(F)c1 [Compound 81, 4,5-dichloro-2-(2-fluoro-4-methoxyphenoxy)-N-(3-sulfamoylphenyl)benzamide]	8	88
COc1ccc(Oc2cc(Cl)c(Cl)cc2C(=O)Nc2cccc(S(N)(=O)=O)c2)c(Cl)c1 [Compound 82, 4,5-dichloro-2-(2-chloro-4-methoxyphenoxy)-N-(3-sulfamoylphenyl)benzamide]	6	77
Cc1cc(F)ccc1Oc1cc(Cl)c(Cl)cc1C(=O)Nc1cccc(S(N)(=O)=O)c1 [Compound 83, 4,5-dichloro-2-(4-fluoro-2-methylphenoxy)-N-(3-sulfamoylphenyl)benzamide]	5	93
